Data taken from ChEMBL document CHEMBL4765450, “The components and activities analysis of a novel anticoagulant candidate dHG-5” (Eur J Med Chem, 2020).
Calls of active or inactive are those of the source. The calls are words filed in the database; no cut-off is given here.

Experiments:
Plasma [1] = experiment: Induction of platelet aggregation in human platelet rich plasma at plasma peak concentration of 10 times anti-thrombosis ED50 measured after 10 mins by light transmission aggregometry
[2] = target: Prothrombin (Homo sapiens) (UniProt P00734); experiment: Inhibition of factor 2a (unknown origin) at IC50 preincubated for 1 min followed by chromogenic substrate addition and measured for 2 mins; conditions: time 3.0 min
[3] = target: T1, Coagulation factor VII (Homo sapiens) (UniProt P08709); experiment: Inhibition of factor 7a (unknown origin) at IC50 using pefachrome factor VIIa as substrate preincubated for 1 min followed by chromogenic substrate addition and measured for 2 mins; conditions: time 3.0 min
T1 sequence (whole entry): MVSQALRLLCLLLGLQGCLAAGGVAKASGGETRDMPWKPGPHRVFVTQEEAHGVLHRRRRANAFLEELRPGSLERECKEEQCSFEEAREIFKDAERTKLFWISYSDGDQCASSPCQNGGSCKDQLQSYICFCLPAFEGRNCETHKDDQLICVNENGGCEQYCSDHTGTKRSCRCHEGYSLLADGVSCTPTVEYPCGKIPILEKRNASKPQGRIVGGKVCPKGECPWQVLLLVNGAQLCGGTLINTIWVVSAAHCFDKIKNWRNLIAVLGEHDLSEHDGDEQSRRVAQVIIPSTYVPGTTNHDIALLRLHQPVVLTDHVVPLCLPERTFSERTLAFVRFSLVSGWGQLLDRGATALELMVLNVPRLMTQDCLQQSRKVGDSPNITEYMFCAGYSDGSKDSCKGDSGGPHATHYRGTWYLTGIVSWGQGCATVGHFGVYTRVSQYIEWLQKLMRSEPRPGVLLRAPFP

[4] = target: Coagulation factor X (Homo sapiens) (UniProt P00742); experiment: Inhibition of factor 10a (unknown origin) at IC50 preincubated for 1 min followed by chromogenic substrate addition and measured for 2 mins; conditions: time 3.0 min
Chain of Coagulation factor X (Homo sapiens) (P00742 41-179 limits assumed): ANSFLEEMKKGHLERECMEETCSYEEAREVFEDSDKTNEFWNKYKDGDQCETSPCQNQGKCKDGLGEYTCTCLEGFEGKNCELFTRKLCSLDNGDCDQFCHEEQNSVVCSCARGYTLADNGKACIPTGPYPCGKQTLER
Chain of Coagulation factor X (Homo sapiens) (P00742 235-488 limits assumed): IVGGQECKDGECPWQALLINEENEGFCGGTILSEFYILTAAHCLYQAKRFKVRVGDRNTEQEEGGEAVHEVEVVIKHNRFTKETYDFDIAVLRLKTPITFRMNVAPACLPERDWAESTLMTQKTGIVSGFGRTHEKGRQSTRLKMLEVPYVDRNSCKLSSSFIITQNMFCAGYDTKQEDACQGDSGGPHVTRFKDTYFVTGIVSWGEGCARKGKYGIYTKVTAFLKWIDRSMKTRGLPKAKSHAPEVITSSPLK

[5] = target: Coagulation factor XI (Homo sapiens) (UniProt P03951); experiment: Inhibition of factor 11a (unknown origin) at IC50 using S-2366 as substrate preincubated for 1 min followed by chromogenic substrate addition and measured for 2 mins; conditions: time 3.0 min
Chain of Coagulation factor XI (Homo sapiens) (P03951 19-387 limits assumed): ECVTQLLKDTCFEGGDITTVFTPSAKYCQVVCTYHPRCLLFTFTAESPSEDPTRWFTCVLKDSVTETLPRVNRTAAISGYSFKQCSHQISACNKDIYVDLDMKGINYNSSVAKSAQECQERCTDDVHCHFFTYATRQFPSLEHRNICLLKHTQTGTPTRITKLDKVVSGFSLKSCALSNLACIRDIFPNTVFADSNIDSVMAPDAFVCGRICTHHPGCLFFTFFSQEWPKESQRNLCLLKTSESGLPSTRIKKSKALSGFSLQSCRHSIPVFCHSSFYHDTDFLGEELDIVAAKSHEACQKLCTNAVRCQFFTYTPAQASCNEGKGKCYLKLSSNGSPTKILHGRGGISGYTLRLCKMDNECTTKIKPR
Chain of Coagulation factor XI (Homo sapiens) (P03951 388-625 limits assumed): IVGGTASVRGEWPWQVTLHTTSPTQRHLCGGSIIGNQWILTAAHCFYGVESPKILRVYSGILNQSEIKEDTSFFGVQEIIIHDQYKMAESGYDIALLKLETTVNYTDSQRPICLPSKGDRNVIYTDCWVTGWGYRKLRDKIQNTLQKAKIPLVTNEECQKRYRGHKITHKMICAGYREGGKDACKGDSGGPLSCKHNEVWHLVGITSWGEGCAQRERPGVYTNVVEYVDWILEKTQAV

[6] = target: T2, Coagulation factor XII (Homo sapiens) (UniProt P00748); experiment: Inhibition of factor 12a (unknown origin) at IC50 using kallikrein chromogenic substrate preincubated for 1 min followed by chromogenic substrate addition and measured for 2 mins; conditions: time 3.0 min
T2 sequence (whole entry): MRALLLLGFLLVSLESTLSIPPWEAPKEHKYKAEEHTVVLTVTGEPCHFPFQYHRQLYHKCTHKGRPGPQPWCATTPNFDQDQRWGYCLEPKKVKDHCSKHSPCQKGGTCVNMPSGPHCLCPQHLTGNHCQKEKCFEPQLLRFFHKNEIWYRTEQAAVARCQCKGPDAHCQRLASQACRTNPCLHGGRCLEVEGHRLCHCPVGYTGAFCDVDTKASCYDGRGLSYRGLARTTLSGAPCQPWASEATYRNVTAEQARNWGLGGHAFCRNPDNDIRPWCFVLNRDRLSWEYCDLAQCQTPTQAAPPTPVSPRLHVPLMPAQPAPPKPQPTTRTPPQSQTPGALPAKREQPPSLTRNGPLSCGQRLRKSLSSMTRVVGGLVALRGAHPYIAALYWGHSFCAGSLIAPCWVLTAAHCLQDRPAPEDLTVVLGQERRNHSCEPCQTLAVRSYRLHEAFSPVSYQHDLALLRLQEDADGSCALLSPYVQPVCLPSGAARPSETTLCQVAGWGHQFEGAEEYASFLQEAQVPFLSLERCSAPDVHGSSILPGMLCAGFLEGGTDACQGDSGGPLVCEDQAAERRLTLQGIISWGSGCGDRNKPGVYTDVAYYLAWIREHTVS

[7] = target: Prothrombin (Homo sapiens) (UniProt P00734); experiment: Inhibition of factor 2a (unknown origin) at IC50 preincubated for 1 min followed by chromogenic substrate addition and measured for 2 mins in presence of AT-III; conditions: time 3.0 min
[8] = target: T1, Coagulation factor VII (Homo sapiens); experiment: Inhibition of factor 7a (unknown origin) at IC50 using pefachrome factor VIIa as substrate preincubated for 1 min followed by chromogenic substrate addition and measured for 2 mins in presence of AT-III; conditions: time 3.0 min
[9] = target: Coagulation factor X (Homo sapiens) (UniProt P00742); experiment: Inhibition of factor 10a (unknown origin) at IC50 preincubated for 1 min followed by chromogenic substrate addition and measured for 2 mins in presence of AT-III; conditions: time 3.0 min
[10] = target: Coagulation factor XI (Homo sapiens) (UniProt P03951); experiment: Inhibition of factor 11a (unknown origin) at IC50 using S-2366 as substrate preincubated for 1 min followed by chromogenic substrate addition and measured for 2 mins in presence of AT-III; conditions: time 3.0 min
[11] = target: T2, Coagulation factor XII (Homo sapiens); experiment: Inhibition of factor 12a (unknown origin) at IC50 using kallikrein chromogenic substrate preincubated for 1 min followed by chromogenic substrate addition and measured for 2 mins in presence of AT-III; conditions: time 3.0 min
[12] = target: Prothrombin (Homo sapiens) (UniProt P00734); experiment: Inhibition of factor 2a (unknown origin) at IC90 preincubated for 1 min followed by chromogenic substrate addition and measured for 2 mins in presence of AT-III; conditions: time 3.0 min
[13] = target: Coagulation factor XI (Homo sapiens) (UniProt P03951); experiment: Inhibition of factor 11a (unknown origin) at IC90 using S-2366 as substrate preincubated for 1 min followed by chromogenic substrate addition and measured for 2 mins in presence of AT-III; conditions: time 3.0 min
[14] = target: Coagulation factor X (Homo sapiens) (UniProt P00742); experiment: Inhibition of factor 10a (unknown origin) at IC90 preincubated for 1 min followed by chromogenic substrate addition and measured for 2 mins in presence of AT-III relative to control; conditions: time 3.0 min
Plasma [15] = experiment: Anticoagulation activity in AT-III-deficient human plasma preincubated for 2 mins followed by APTT reagent and measured after 3 mins by coagulometric method; format: functional, cell-free; conditions: time 5.0 min
Plasma [16] = experiment: Anticoagulation activity in HCII-deficient human plasma preincubated for 2 mins followed by APTT reagent and measured after 3 mins by coagulometric method; format: functional, cell-free; conditions: time 5.0 min
Plasma [17] = experiment: Induction of platelet aggregation in rat wash platelet at plasma peak concentration of 10 times anti-thrombosis ED50 measured after 10 mins by light transmission aggregometry
Plasma [18] = experiment: Anticoagulation activity in human plasma assessed as drug level causing 20 times doubling of APTT preincubated for 2 mins followed by APTT reagent and measured after 3 mins by coagulometric method relative to dHG-5; format: functional; conditions: time 5 min
[19] = target: T3, Coagulation factor IX/VIII (Homo sapiens) (UniProt P00740+P00451); experiment: Inhibition of human citrated plasma iXase (factor 8a-factor 9a complex) preincubated for 2 mins followed by factor 10 addition and measured after 1 min by FXa chromogenic substrate SXa-11 based assay relative to dHG-5; format: protein-complex assay; conditions: time 3.0 min
Coagulation factor IX [20] = target: T4, Coagulation factor IX (Homo sapiens, UniProt P00740); experiment: Inhibition of factor 9a (unknown origin) binding to immobilized biotinylated oHG-11 by biolayer interferometry relative to dHG-5
T4 sequence (P00740 47-191 limits assumed): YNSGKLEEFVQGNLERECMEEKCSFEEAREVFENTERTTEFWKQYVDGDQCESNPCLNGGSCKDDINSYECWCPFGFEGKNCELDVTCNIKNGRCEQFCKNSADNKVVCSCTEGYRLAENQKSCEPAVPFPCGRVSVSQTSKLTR
T4 sequence (P00740 227-461 limits assumed): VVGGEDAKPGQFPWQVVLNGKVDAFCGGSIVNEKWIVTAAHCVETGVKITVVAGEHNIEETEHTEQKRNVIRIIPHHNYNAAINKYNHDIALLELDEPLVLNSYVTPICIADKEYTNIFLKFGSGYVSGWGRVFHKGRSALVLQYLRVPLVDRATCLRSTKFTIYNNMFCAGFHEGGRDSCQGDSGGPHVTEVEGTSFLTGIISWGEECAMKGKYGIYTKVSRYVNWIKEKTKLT

Rattus norvegicus [21] = experiment: Antithrombotic activity in thromboplastin and stasis-induced Sprague-Dawley rat deep venous thrombosis model assessed as reduction in venous thrombosis at 4.94 mg/kg, sc administered 1 hr prior to thromboplastin addition for 20 secs followed by establishment of stasis for 20 mins relative to dHG-5; format: functional; conditions: time 80.33 min, 1.339 h
Plasma [22] = experiment: Anticoagulation activity in human plasma assessed as drug level causing 20 times doubling of APTT by measuring activity potency of oligosaccharides multiplied by the percentage of oligosaccharides in dHG-5 preincubated for 2 mins followed by APTT reagent and measured after 3 mins by coagulometric method relative to dHG-5; format: functional; conditions: time 5 min
[23] = target: T3, Coagulation factor IX/VIII (Homo sapiens); experiment: Inhibition of human citrated plasma iXase (factor 8a-factor 9a complex) assessed as activity potency of oligosaccharides multiplied by the percentage of oligosaccharides in dHG-5 preincubated for 2 mins followed by factor 10 addition and measured after 1 min by FXa chromogenic substrate SXa-11 based assay relative to dHG-5; format: protein-complex assay; conditions: time 3.0 min
Coagulation factor IX [24] = target: T4, Coagulation factor IX; experiment: Inhibition of factor 9a (unknown origin) binding to immobilized biotinylated oHG-11 assessed as activity potency of oligosaccharides multiplied by the percentage of oligosaccharides in dHG-5 by biolayer interferometry relative to dHG-5
Rattus norvegicus [25] = experiment: Antithrombotic activity in thromboplastin and stasis-induced Sprague-Dawley rat deep venous thrombosis model assessed as reduction in venous thrombosis by measuring activity potency of oligosaccharides multiplied by the percentage of oligosaccharides in dHG-5 at 4.94 mg/kg, sc administered 1 hr prior to thromboplastin addition for 20 secs followed by establishment of stasis for 20 mins relative to dHG-5; format: functional; conditions: time 80.33 min, 1.339 h
[26] = target: Coagulation factor IX/VIII (Homo sapiens, UniProt P00451+P00740); experiment: Inhibition of human citrated plasma iXase (factor 8a-factor 9a complex) preincubated for 2 mins followed by factor 10 addition and measured after 1 min by FXa chromogenic substrate SXa-11 based assay; format: protein-complex assay
Chain of Coagulation factor IX/VIII (P00451 20-759 limits assumed): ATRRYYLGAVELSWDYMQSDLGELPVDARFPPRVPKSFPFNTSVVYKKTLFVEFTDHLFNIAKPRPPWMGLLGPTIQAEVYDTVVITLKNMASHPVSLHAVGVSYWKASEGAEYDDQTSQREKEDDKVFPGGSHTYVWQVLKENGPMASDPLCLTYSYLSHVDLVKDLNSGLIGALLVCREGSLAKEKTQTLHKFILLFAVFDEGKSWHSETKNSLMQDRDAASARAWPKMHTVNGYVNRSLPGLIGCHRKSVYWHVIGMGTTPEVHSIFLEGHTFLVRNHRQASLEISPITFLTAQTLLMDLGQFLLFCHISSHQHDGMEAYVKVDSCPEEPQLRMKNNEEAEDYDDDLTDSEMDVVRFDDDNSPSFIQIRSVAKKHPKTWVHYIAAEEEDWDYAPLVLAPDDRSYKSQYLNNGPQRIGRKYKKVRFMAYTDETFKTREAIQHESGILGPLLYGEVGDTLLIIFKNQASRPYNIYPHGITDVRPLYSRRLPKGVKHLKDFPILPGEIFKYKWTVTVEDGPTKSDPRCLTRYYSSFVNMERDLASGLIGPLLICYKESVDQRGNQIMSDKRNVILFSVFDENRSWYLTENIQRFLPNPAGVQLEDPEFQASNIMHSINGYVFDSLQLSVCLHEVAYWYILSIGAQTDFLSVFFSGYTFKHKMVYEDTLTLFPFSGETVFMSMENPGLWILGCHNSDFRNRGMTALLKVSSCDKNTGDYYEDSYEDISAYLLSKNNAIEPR
Chain of Coagulation factor IX/VIII (P00451 1668-2351 limits assumed): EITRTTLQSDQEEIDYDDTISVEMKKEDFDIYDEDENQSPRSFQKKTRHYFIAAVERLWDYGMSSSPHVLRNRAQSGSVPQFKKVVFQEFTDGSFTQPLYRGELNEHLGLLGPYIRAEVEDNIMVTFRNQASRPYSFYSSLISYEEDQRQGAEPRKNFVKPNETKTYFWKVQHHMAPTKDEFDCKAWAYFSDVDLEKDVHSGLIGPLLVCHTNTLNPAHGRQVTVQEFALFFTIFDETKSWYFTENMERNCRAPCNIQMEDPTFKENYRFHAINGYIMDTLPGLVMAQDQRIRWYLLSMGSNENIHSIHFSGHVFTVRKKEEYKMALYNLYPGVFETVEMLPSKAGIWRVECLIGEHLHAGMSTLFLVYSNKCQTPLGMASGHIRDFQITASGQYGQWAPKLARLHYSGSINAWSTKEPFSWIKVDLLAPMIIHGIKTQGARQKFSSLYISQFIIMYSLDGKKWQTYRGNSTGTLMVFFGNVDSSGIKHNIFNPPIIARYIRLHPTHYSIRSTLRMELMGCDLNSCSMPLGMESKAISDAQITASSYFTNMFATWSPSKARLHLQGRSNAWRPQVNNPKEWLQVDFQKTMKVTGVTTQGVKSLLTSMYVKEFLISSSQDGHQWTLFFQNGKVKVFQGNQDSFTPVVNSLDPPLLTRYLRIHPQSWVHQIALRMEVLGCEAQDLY
Chain of Coagulation factor IX/VIII (P00740 47-191 limits assumed): as the sequence (P00740 47-191 limits assumed) above
Chain of Coagulation factor IX/VIII (P00740 227-461 limits assumed): as the sequence (P00740 227-461 limits assumed) above

Coagulation factor IX [27] = target: T4, Coagulation factor IX; experiment: Inhibition of factor 9a (unknown origin) binding to immobilized biotinylated oHG-11 by biolayer interferometry
Plasma [28] = experiment: Anticoagulation activity in human plasma assessed as drug level causing 20 times doubling of APTT preincubated for 2 mins followed by APTT reagent and measured after 3 mins by coagulometric method; format: functional; conditions: time 5 min
Rattus norvegicus [29] = experiment: Antithrombotic activity in thromboplastin and stasis-induced Sprague-Dawley rat deep venous thrombosis model assessed as reduction in venous thrombosis at 13.5 mg/kg, sc administered 1 hr prior to thromboplastin addition for 20 secs followed by establishment of stasis for 20 mins; format: functional; parameters: scale not given: the % may be the effect or the level left; conditions: time 80.33 min, 1.339 h
Rattus norvegicus [30] = experiment: Antithrombotic activity in thromboplastin and stasis-induced Sprague-Dawley rat deep venous thrombosis model assessed as reduction in venous thrombosis at 13.5 mg/kg, sc administered 1 hr prior to thromboplastin addition for 20 secs followed by establishment of stasis for 20 mins relative to dHG-5; format: functional; conditions: time 80.33 min, 1.339 h
Rattus norvegicus [31] = experiment: Antithrombotic activity in thromboplastin and stasis-induced Sprague-Dawley rat deep venous thrombosis model assessed as reduction in venous thrombosis by measuring activity potency of oligosaccharides multiplied by the percentage of oligosaccharides in dHG-5 at 13.5 mg/kg, sc administered 1 hr prior to thromboplastin addition for 20 secs followed by establishment of stasis for 20 mins relative to dHG-5; format: functional; conditions: time 80.33 min, 1.339 h

In the case of `CC(=O)N[C@H]1[C@H](O[C@@H]([C@H](O[C@@H]2O[C@@H](C)[C@@H](OS(=O)(=O)[O-])[C@@H](OS(=O)(=O)O)[C@@H]2O)[C@@H](O)CO)[C@H](O)C(=O)[O-])O[C@@H](COS(=O)(=O)[O-])[C@H](OS(=O)(=O)[O-])[C@@H]1O[C@@H]1O[C@H](C(=O)[O-])[C@@H](O[C@@H]2O[C@H](COS(=O)(=O)[O-])[C@H](OS(=O)(=O)[O-])[C@H](O[C@@H]3OC(C(=O)[O-])=C[C@H](O[C@@H]4O[C@@H](C)[C@@H](OS(=O)(=O)[O-])[C@@H](S(=O)(=O)O)[C@@H]4O)[C@H]3O)[C@H]2NC(C)=O)[C@H](O[C@@H]2O[C@@H](C)[C@@H](OS(=O)(=O)[O-])[C@@H](OS(=O)(=O)O)[C@@H]2O)[C@@H]1O.[Na+].[Na+].[Na+].[Na+].[Na+].[Na+].[Na+].[Na+].[Na+].[Na+]`, the Activity (Plasma [1]) is reported as “Not Active”, the inhibition [2] is reported as “inactive” and the “inhibition (active/not active)” value [3] is reported as “inactive”. For the same compound, the inhibition [4] was “inactive”, the inhibition [5] was “inactive” and the inhibition [6] was “inactive”. For the same compound, the inhibition [7] was “inactive”, the inhibition [8] was “inactive” and the inhibition [9] was “inactive”. For the same compound, the inhibition [10] was “inactive”, the inhibition [11] was “inactive” and the inhibition [12] was “Active”. The inhibition [13] was “Active”, the inhibition [14] was 14.2% and the Activity (Plasma [15]) was “Active”. The Activity (Plasma [16]) was “Active”, the Activity (Plasma [17]) was “Not Active” and the Ratio (Plasma [18]) was 10.96 U. For the same compound, the Ratio [19] was 8.98 U, the Ratio (Coagulation factor IX [20]) was 13 U and the Ratio (Rattus norvegicus [21]) was 24.31 U. The Ratio (Plasma [22]) was 1.91 U, the Ratio [23] was 1.56 U and the Ratio (Coagulation factor IX [24]) was 2.27 U. It also gave a Ratio (Rattus norvegicus [25]) of 4.23 U.
For `CC(=O)N[C@H]1[C@H](O[C@@H]([C@H](O[C@@H]2O[C@@H](C)[C@@H](OS(=O)(=O)[O-])[C@@H](OS(=O)(=O)O)[C@@H]2O)[C@@H](O)CO)[C@H](O)C(=O)[O-])O[C@H](COS(=O)(=O)[O-])[C@H](OS(=O)(=O)[O-])[C@@H]1O[C@@H]1OC(C(=O)[O-])=C[C@H](O[C@@H]2O[C@@H](C)[C@@H](OS(=O)(=O)[O-])[C@@H](OS(=O)(=O)O)[C@@H]2O)[C@H]1O.[Na+].[Na+].[Na+].[Na+].[Na+].[Na+]`, the IC50 [26] was greater than 3 µM, the IC50 (Coagulation factor IX [27]) was 12.9 µM and the inhibition [2] was “inactive”. The “inhibition (active/not active)” value [3] was “Active”, the inhibition [4] was “inactive” and the inhibition [5] was “inactive”. The inhibition [6] was “inactive”, the inhibition [7] was “inactive” and the inhibition [8] was “inactive”. For the same compound, the inhibition [9] was “inactive”, the inhibition [10] was “inactive” and the inhibition [11] was “inactive”. The inhibition [12] was “Active”, the inhibition [13] was “Active” and the inhibition [14] was 14.2%. For the same compound, the EC (Plasma [28]) was 199 µM, the Activity (Plasma [15]) was “Active” and the Activity (Plasma [16]) was “Active”. For the same compound, the Activity (Rattus norvegicus [29]) was 30.8%, the Ratio (Plasma [18]) was 0.9 U and the Ratio [19] was 0.36 U. For the same compound, the Ratio (Coagulation factor IX [20]) was 3.32 U, the Ratio (Rattus norvegicus [30]) was 3.96 U and the Ratio (Plasma [22]) was 0.04 U. It also gave a Ratio [23] of 0.02 U, a Ratio (Coagulation factor IX [24]) of 0.16 U and a Ratio (Rattus norvegicus [31]) of 0.19 U.
